For assay [1], the target named is T1, human recombinant 5-HT2C receptor (Homo sapiens, UniProt P28335).
T1 construct: expressed in transfected cells; host or cells: Jump-In HEK cells (membrane preparation)
T1 sequence (P28335 33-458): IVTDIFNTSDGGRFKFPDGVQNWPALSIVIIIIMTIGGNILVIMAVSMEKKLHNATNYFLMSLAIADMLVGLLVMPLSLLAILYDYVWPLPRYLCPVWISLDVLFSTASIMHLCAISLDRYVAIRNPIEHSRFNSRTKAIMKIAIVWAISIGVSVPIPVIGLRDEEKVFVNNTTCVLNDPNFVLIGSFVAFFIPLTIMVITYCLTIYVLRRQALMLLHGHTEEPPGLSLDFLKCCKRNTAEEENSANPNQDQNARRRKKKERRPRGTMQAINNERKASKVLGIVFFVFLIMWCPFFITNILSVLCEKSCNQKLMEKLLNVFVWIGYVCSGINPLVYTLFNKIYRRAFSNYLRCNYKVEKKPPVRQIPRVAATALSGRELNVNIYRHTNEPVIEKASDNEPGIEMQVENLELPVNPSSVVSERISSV
In words: Test Example 2: 5-HT2C receptor binding inhibition test ([3H]-Mesulergine; non-specific ligand Serotonin HCl). The procedure, abridged: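 Ki values come from dose-response curves of [3H]-mesulergine displacement from human 5-HT2C membranes after 2 h at 37°C, scored by scintillation counting of filter-bound radioactivity. Serotonin HCl (500 µmol/L) set non-specific binding; Kd per membrane lot was taken from Scatchard plots.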

Assay [2] deals with T2, human recombinant 5-HT2A receptor (Homo sapiens, UniProt P28223).
T2 construct: expressed in transfected cells; host or cells: Jump-In HEK cells (membrane preparation)
Briefly: Test Example 1-2: 5-HT2A receptor binding inhibition test ([3H]-Ketanserin; non-specific ligand Ketanserin). The essentials:
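Ki values were derived from dose-response inhibition of [3H]-ketanserin binding; nonspecific binding was set with 500 µmol/L ketanserin, and Kd was set for each membrane lot from Scatchard saturation plots. Incubation lasted 1.5 h at room temperature (25 °C). Bound radioligand was harvested on Tris-HCl (pH 7.4)-presoaked filters and counted.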

[3] abbreviates: [3H]-Mesulergine, non-specific binding with 500 µmol/L Serotonin HCl, 37°C, 2 hours.
[4] abbreviates: [3H]-Ketanserin, non-specific binding with 500 µmol/L Ketanserin, room temperature (25°C), 1.5 hours, read-out: h 5-HT2A Ki.
Setting [5] is: human serotonin 5-HT2C receptor binding activity.

Read-outs that look alike come from different tables or passages of the source.

T2 sequence (P28223 whole entry): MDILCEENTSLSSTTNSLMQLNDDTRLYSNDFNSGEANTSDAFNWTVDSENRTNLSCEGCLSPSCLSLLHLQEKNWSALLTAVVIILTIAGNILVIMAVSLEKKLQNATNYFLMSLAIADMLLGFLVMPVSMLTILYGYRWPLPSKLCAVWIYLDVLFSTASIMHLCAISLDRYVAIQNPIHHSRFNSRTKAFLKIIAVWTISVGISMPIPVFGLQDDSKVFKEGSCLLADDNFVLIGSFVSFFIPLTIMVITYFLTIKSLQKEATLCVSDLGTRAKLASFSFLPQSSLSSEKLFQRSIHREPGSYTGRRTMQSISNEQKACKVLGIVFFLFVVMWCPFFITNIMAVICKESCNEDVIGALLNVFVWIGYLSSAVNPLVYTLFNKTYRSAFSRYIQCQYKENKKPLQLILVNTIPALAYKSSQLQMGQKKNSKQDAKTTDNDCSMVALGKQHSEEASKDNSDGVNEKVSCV

What is called Ki is the equilibrium dissociation constant of an inhibitor or competing ligand from its target. Take `Cn1ncc(Br)c1-c1cc(Nc2ncc(C(F)(F)F)cc2F)ccc1OCCO` [Compound I-006]: the figures for the Ki in assay [1] (setting [3]) and in assay [2] were 0.223 nM and 0.253 nM, respectively.

`Cc1cnn(C)c1-c1cc(Nc2ncc(C(F)(F)F)cc2F)ccc1OCCO` [Compound I-008]: the Ki came out at 1.05 nM in assay [1] (setting [3]) and 0.338 nM in assay [2] (setting [4]).

Turning to `Cn1ncc(F)c1-c1cc(Nc2ncc(C(F)(F)F)cc2F)cnc1OCCO` [Compound I-127], the Ki in assay [2] (setting [4]) was 0.271 nM.

Turning to `COCc1nc(C)c(-c2cc(Nc3ncc(OC(F)(F)F)cc3Cl)ncc2OCCO)c(C)n1` [Compound I-200], the Ki came to 1.9 nM in assay [1] (setting [5]) and 1.49 nM in assay [2] (setting [4]).

Take `COCc1nc(C)c(-c2nc(Nc3ccc(C(F)(F)F)c(C)n3)c(F)cc2OCCO)c(C)n1` [Compound I-247]: the Ki in assay [1] (setting [5]) was determined as 1.62 nM; in assay [2] (setting [4]), 1.74 nM.

Regarding `Cc1nc(COC2COC2)nc(C)c1-c1cc(Nc2ncc(C(F)(F)F)cc2Cl)ncc1OCCO` [Compound I-376], the Ki in assay [1] (setting [5]) was 2.74 nM; in assay [2] (setting [4]) it was 2.24 nM.

With `Cc1nc(CO[C@@H]2CCOC2)nc(C)c1-c1cc(Nc2ncc(C(F)(F)F)cc2Cl)ncc1OCCO` [Compound I-378], the Ki in assay [1] (setting [5]) is 1.51 nM; in assay [2] (setting [4]), 2.43 nM.

These data come from patent EP4631938A1, “NITROGEN-CONTAINING HETEROCYCLE WITH SEROTONIN RECEPTOR-BINDING ACTIVITY AND CARBOCYCLIC DERIVATIVE” (Shionogi & Co., Ltd, priority 2022, dated 2024).
